Measurements published in Sander's compilation of Henry's law constants (doi:10.1021/je700418a).

Assay: Henry solubility constant Hcp at 298.15 K (mol/(m3 Pa))
Details: reference: Helburn et al. (2008)

SMILES	Henry solubility constant Hcp
CCOCC [diethyl ether]	0.095
C=C(C)[C@H]1CC=C(C)CC1 [(R)-1-methyl-4-(1-methylethenyl)-cyclohexene]	0.00026
Cc1ccccc1 [methylbenzene]	0.0014
ClC=C(Cl)Cl [trichloroethene]	0.00094
CCCCOC(C)=O [butyl ethanoate]	0.021
C1CCCCC1 [cyclohexane]	8e-05
CC(C)C12CCC(C)(CC1)O2 [1-methyl-4-(1-methylethyl)-7-oxabicyclo[2.2.1]heptane]	0.039

Continued, values first:

Henry solubility constant Hcp	SMILES
0.029	CC(C)=CCCC(C)=CC#N [3,7-dimethyl-2,6-octadienenitrile]
0.0032	ClCCl [dichloromethane]
0.68	CC(C)O [2-propanol]
0.0043	CCCCCCCCCC=O [decanal]
